Measured values: US20240391931A1 (Bristol-Myers Squibb Company, priority 2021, published 2024)

Columns and labels:
Format in all cases: cell-based
[1] = biological target: T1, HER2 (Homo sapiens, UniProt P04626); experiment: HER2 occupancy assay in N87 cells; conditions: concentration at which 50% of HER2 is irreversible bound, read-out: N87 HER2 Occ
T1 construct: BT474 and N87 cell lines which endogenously overexpress the HER2 wildtype (WT) protein; endogenous in cells; host or cells: BT474, N87
T1 sequence (P04626 23-1255): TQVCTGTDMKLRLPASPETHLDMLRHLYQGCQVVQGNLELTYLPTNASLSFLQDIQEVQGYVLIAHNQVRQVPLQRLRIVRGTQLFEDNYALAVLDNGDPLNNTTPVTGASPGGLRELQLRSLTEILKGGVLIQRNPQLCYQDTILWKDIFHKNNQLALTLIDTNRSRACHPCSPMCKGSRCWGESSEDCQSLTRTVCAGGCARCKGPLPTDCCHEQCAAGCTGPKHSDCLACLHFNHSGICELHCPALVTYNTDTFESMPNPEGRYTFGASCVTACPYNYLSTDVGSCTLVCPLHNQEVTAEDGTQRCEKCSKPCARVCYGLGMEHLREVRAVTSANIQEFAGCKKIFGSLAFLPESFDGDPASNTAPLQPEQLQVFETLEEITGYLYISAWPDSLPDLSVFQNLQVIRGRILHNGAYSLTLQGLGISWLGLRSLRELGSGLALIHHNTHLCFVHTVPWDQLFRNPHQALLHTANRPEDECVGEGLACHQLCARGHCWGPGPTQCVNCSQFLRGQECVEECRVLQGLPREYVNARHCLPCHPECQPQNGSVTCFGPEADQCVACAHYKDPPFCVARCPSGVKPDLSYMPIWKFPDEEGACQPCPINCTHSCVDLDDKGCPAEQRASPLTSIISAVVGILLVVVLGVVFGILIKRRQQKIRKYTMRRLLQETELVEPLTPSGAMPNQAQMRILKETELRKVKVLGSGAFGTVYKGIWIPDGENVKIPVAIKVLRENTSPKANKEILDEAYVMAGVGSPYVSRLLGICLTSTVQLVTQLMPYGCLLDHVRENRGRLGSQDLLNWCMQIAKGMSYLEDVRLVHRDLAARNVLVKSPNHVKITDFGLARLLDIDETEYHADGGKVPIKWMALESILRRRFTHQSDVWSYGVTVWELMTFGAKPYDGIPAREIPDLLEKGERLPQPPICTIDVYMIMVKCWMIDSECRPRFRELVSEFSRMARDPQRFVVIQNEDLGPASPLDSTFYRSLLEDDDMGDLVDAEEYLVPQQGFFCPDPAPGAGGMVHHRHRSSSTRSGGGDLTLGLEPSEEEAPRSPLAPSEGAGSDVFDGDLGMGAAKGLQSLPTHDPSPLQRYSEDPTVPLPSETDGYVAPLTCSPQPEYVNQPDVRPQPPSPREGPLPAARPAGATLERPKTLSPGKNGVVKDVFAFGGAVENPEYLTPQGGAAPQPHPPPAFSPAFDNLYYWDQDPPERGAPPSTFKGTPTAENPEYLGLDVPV
Description: (§1) In order to assess free HER2 protein, a biotinylated probe was utilized. BT474, N87, and Ba/F3-HER2YVMA cells were treated with test compound as described for HER2 signaling. After compound treatment, cells were washed three times with cold phosphate buffer saline (PBS, Life Technologies, Carlsbad, CA), and lysed in modified occupancy lysis buffer prepared with an irreversible biotinylated tool compound (1 μM) in 25 mM Tris pH 7.5, 150 mM NaCl, 1% Triton, and supplemented with cOmplete, EDTA-free Protease inhibitor cocktail (Roche), Phosphatase Inhibitor Cocktails 2 and 3 (Sigma-Aldrich), and 1 mM PMSF (Sigma-Aldrich).
(§2) To determine % occupancy, lysates were loaded into duplicate plates of the phospho (Tyr1248)/total ErbB2 whole cell lysate MSD kit (Meso-Scale Discovery) and incubated overnight. Plates were washed and incubation with either HER2-sulfoTag (1:50, Meso Scale Discovery) or Strep-Sulfo Tag (1:1000, Meso Scale Discovery), for detection of […]. A standard curve of untreated cells in serial dilution was included in each plate to independently fit streptavidin (Free HER2) and total HER2 MSD signals; non-specific signal (BSA control spots) was subtracted from each well. Free HER2 was then normalized by total HER2 for each sample. The results are reported as % DMSO control. The normalized data was fitted using a sigmoidal curve analysis program (Graph Pad Prism version 6) with variable Hill slope to determine EC50 values. The results are provided in Table 4, under columns titled “BT474-HER2 Occ”, “N87-HER2 Occ”, and “Ba/F3 YVMA-HER2 Occ”. HER2 Occ is the concentration of test compound at which 50% of HER2 is irreversible bound.

[2] = biological target: T1, HER2; experiment: HER2 occupancy assay in BT474 cells; conditions: concentration at which 50% of HER2 is irreversible bound, read-out: BT474 HER2 Occ
Description: as §1, §2

[3] = biological target: EGFR (Homo sapiens, UniProt P00533); experiment: EGFR occupancy in N87 cells; parameters: endogenous in cells; host or cells: N87; conditions: N87 cells; concentration at which 50% of EGFR is irreversible bound; read-out: N87 EGFR Occ
Chain of EGFR (P00533 25-1210): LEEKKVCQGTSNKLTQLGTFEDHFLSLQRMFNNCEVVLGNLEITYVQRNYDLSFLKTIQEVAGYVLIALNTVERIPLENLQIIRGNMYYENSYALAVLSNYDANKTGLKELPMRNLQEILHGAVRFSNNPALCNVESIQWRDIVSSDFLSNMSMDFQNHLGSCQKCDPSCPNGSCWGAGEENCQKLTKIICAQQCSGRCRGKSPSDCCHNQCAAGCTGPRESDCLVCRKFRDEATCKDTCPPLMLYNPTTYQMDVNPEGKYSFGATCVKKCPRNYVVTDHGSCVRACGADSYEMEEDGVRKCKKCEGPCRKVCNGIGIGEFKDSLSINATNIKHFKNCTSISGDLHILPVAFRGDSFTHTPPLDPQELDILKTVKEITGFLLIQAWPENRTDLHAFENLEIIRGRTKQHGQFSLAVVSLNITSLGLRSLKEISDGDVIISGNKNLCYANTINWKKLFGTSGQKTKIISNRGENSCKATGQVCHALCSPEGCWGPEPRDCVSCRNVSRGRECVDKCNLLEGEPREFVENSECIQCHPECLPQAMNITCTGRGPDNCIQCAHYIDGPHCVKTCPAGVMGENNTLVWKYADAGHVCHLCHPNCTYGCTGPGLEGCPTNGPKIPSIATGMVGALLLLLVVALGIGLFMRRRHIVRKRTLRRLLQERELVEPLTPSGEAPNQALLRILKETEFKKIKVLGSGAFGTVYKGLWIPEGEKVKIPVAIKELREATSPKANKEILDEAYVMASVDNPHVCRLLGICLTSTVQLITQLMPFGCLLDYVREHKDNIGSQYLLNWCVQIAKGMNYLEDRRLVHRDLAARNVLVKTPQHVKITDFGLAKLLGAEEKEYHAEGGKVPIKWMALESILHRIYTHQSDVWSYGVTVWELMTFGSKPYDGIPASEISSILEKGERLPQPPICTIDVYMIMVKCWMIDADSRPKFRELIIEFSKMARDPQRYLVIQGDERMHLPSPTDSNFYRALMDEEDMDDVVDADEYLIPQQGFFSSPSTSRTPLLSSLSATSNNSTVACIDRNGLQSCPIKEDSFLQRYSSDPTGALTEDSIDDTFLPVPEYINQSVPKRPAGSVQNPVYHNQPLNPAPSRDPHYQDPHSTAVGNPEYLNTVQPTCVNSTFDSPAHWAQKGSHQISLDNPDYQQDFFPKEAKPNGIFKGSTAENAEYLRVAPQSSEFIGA
Description: In order to assess free EGFR protein, a biotinylated probe was utilized as described for HER2 occupancy. N87 cells were plated, treated, and lysed as described for HER2 occupancy method. After treatment, the cells were washed three times with cold PBS, lysed at room temperature for 1 hr in modified occupancy lysis buffer (prepared as described in section titled “HER2 Occupancy Assay”). Lysates were stored at −70° C. until further analysis. For determination of % occupancy, lysates were loaded into duplicate plates of the phospho (Tyr 1068)/total EGFR whole cell lysate kit (Meso-Scale Discovery) and incubated overnight. Plates were washed and incubated with either EGFR-sulfoTag (1:50, Meso Scale Discovery) or Strep-Sulfo Tag (1:1000, Meso Scale Discovery), for detection of free and total EGFR, respectively. BSA control spots included in MSD plates were used to subtract non-specific signal. A standard curve of untreated cells in serial dilution was included in each plate to convert streptavidin and total EGFR MSD signals into free EGFR and total EGFR. Free EGFR was normalized to total EGFR for each sample. Data, reported as % […] control, was fitted using a sigmoidal curve analysis program (Graph Pad Prism version 6) with variable Hill slope to determine EC50 values. The results are provided in Table 4, under column titled “N87-EGFR Occ”. EGFR Occ is the concentration of test compound at which 50% of EGFR is irreversible bound.

CN(C)C/C=C/C(=O)N1CCc2c(sc3ncnc(Nc4ccc(Oc5ccc6ncnn6c5)c(Cl)c4)c23)C1 [Compound 5, (E)-1-(4-((4-([1,2,4]triazolo[1,5-a]pyridin-6-yloxy)-3-chlorophenyl)amino)-5,8-dihydropyrido[4′,3′:4,5]thieno[2,3-d]pyrimidin-7(6H)-yl)-4-(dimethylamino)but-2-en-1-one]
EC50 [1]: < 100 nM | EC50 [2]: < 100 nM

COc1ccc(Oc2ccc(Nc3ncnc4sc5c(c34)CCN(C(=O)/C=C/CN(C)C)C5)cc2C)cn1 [Compound 95, (E)-4-(Dimethylamino)-1-(4-((4-((6-methoxypyridin-3-yl)oxy)-3-methylphenyl)amino)-5,6-dihydropyrido[4′,3′:4,5]thieno[2,3-d]pyrimidin-7(8H)-yl)but-2-en-1-one]
EC50 [3]: 100 to 350 nM | EC50 [1]: < 100 nM
